Data taken from paper PMC6152052, “Molecular Structure–Affinity Relationship of Flavonoids in Lotus Leaf (Nelumbo nucifera Gaertn.) on Binding to Human Serum Albumin and Bovine Serum Albumin by Spectroscopic Method” (Molecules : A Journal of Synthetic Chemistry and Natural …, 2017).
Like-named read-outs stand apart in the source and are kept apart here. Values belong to the compound of their own block, whether it stands above or below them.

Key:
[1] = biological target: T1, bovine serum albumin (BSA) (Bos taurus, UniProt P02769); experiment: intrinsic fluorescence quenching, double-log plot; assay type: binding
T1 construct: gene ALB
Text: intrinsic fluorescence quenching, double-log plot on bovine serum albumin (BSA)

[2] = biological target: T2, human serum albumin (HSA) (Homo sapiens, UniProt P02768); experiment: intrinsic fluorescence quenching, double-log plot; assay type: binding
T2 construct: gene ALB; 585 residues, 66,500 Da, single non-glycosylated chain
Text: intrinsic fluorescence quenching, double-log plot on human serum albumin (HSA)

T2 sequence (P02768 25-609): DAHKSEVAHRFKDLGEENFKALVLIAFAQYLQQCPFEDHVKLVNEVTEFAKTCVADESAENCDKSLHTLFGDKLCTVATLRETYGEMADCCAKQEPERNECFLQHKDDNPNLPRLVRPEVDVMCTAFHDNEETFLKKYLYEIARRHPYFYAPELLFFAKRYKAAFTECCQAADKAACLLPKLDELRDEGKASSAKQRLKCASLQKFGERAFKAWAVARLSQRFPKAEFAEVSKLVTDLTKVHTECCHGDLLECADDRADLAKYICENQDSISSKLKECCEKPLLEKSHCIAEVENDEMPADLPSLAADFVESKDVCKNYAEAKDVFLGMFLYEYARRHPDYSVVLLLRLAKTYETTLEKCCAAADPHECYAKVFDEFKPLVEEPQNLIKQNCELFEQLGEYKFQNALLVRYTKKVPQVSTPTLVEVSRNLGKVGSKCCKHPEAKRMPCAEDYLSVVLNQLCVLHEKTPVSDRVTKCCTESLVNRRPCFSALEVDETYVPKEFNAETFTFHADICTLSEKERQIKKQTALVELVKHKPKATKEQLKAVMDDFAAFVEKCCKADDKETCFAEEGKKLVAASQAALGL
T1 sequence (P02769 25-607): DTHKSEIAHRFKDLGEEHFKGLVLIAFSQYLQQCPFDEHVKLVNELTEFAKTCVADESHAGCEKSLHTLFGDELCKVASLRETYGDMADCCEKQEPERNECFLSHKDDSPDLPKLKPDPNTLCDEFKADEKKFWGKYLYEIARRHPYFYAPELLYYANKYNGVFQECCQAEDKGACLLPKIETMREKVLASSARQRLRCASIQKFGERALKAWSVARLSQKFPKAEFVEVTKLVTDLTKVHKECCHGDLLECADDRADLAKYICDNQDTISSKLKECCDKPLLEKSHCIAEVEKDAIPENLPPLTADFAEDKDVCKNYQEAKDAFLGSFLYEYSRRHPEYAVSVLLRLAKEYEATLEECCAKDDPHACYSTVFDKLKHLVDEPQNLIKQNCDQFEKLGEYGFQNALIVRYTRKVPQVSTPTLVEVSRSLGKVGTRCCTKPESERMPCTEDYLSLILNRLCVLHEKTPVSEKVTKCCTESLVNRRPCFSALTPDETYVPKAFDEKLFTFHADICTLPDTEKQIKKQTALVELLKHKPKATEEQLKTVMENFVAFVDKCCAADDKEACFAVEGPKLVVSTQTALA

BSA Affinity / logKa ([1]; PBS pH 7.4, 300.15 K, ex 280 nm, em 341 nm, n = 0.963, double-log): 6.359 log (L/mol) | HSA Affinity / logKa ([2]; PBS pH 7.4, 300.15 K, ex 280 nm, em 336 nm, n = 0.994, double-log): 6.234 log (L/mol)
SMILES: O=c1c(O[C@@H]2O[C@H](CO)[C@@H](O)[C@H](O)[C@H]2O)c(-c2ccc(O)cc2)oc2cc(O)cc(O)c12 [compound 1, astragalin]

BSA Affinity / logKa ([1]; PBS pH 7.4, 300.15 K, ex 280 nm, em 341 nm, n = 0.962, double-log): 6.686 log (L/mol) | HSA Affinity / logKa ([2]; PBS pH 7.4, 300.15 K, ex 280 nm, em 336 nm, n = 0.992, double-log): 5.896 log (L/mol)
SMILES: C[C@@H]1O[C@@H](OC[C@H]2O[C@@H](Oc3c(-c4ccc(O)c(O)c4)oc4cc(O)cc(O)c4c3=O)[C@H](O)[C@@H](O)[C@@H]2O)[C@H](O)[C@H](O)[C@H]1O [compound 2, rutin]

BSA Affinity / logKa ([1]; PBS pH 7.4, 300.15 K, ex 280 nm, em 341 nm, n = 0.950, double-log): 6.891 log (L/mol) | HSA Affinity / logKa ([2]; PBS pH 7.4, 300.15 K, ex 280 nm, em 336 nm, n = 0.960, double-log): 6.802 log (L/mol)
SMILES: O=c1c(O[C@@H]2O[C@H](CO)[C@H](O)[C@H](O)[C@H]2O)c(-c2ccc(O)c(O)c2)oc2cc(O)cc(O)c12 [compound 3, hyperoside]

BSA Affinity / logKa ([1]; PBS pH 7.4, 300.15 K, ex 280 nm, em 341 nm, n = 0.938, double-log): 7.095 log (L/mol) | HSA Affinity / logKa ([2]; PBS pH 7.4, 300.15 K, ex 280 nm, em 336 nm, n = 0.936, double-log): 6.584 log (L/mol)
SMILES: O=c1c(O[C@@H]2O[C@H](CO)[C@@H](O)[C@H](O)[C@H]2O)c(-c2ccc(O)c(O)c2)oc2cc(O)cc(O)c12 [compound 4, isoquercitrin]

SMILES: O=C1c2c(O)cc(O)cc2O[C@H](c2ccc(O)c(O)c2)[C@H]1O [compound 5, taxifolin]
BSA Affinity / logKa [1]: 7.067 log (L/mol) | HSA Affinity / logKa [2]: 6.748 log (L/mol)

BSA Affinity / logKa ([1]; PBS pH 7.4, 300.15 K, ex 280 nm, em 341 nm, n = 0.923, double-log): 7.110 log (L/mol) | HSA Affinity / logKa ([2]; PBS pH 7.4, 300.15 K, ex 280 nm, em 336 nm, n = 0.904, double-log): 7.064 log (L/mol)
SMILES: O=c1cc(-c2ccc(O)c(O)c2)oc2cc(O)cc(O)c12 [compound 6, luteolin]

SMILES: O=c1c(O)c(-c2ccc(O)c(O)c2)oc2cc(O)cc(O)c12 [compound 7, quercetin]
BSA Affinity / logKa [1]: 7.299 log (L/mol) | HSA Affinity / logKa [2]: 7.089 log (L/mol)

BSA Affinity / logKa ([1]; PBS pH 7.4, 300.15 K, ex 280 nm, em 341 nm, n = 0.870, double-log): 7.086 log (L/mol) | HSA Affinity / logKa ([2]; PBS pH 7.4, 300.15 K, ex 280 nm, em 336 nm, n = 0.962, double-log): 6.655 log (L/mol)
SMILES: O=c1cc(-c2ccc(O)cc2)oc2cc(O)cc(O)c12 [compound 8, apigenin]

SMILES: O=C1C[C@@H](c2ccc(O)cc2)Oc2cc(O)cc(O)c21 [compound 9, naringenin]
BSA Affinity / logKa [1]: 6.982 log (L/mol) | HSA Affinity / logKa [2]: 6.493 log (L/mol)

BSA Affinity / logKa ([1]; PBS pH 7.4, 300.15 K, ex 280 nm, em 341 nm, n = 0.911, double-log): 7.106 log (L/mol) | HSA Affinity / logKa ([2]; PBS pH 7.4, 300.15 K, ex 280 nm, em 336 nm, n = 0.918, double-log): 6.830 log (L/mol)
SMILES: O=c1c(O)c(-c2ccc(O)cc2)oc2cc(O)cc(O)c12 [compound 10, kaempferol]

BSA Affinity / logKa ([1]; PBS pH 7.4, 300.15 K, ex 280 nm, em 341 nm, n = 0.941, double-log): 6.828 log (L/mol) | HSA Affinity / logKa ([2]; PBS pH 7.4, 300.15 K, ex 280 nm, em 336 nm, n = 0.923, double-log): 6.798 log (L/mol)
SMILES: COc1cc(-c2oc3cc(O)cc(O)c3c(=O)c2O)ccc1O [compound 11, isorhamnetin]
